Values quoted from earlier work, collected in US20250049963A1, “GLYCOSYLATED DENDRIMERS FOR TARGETED INTRACELLULAR DELIVERY” (The Johns Hopkins University, priority 2021, published 2025).

Target: T1, GLUT2 (Homo sapiens, UniProt P11168)
T1 sequence (P11168 1-524): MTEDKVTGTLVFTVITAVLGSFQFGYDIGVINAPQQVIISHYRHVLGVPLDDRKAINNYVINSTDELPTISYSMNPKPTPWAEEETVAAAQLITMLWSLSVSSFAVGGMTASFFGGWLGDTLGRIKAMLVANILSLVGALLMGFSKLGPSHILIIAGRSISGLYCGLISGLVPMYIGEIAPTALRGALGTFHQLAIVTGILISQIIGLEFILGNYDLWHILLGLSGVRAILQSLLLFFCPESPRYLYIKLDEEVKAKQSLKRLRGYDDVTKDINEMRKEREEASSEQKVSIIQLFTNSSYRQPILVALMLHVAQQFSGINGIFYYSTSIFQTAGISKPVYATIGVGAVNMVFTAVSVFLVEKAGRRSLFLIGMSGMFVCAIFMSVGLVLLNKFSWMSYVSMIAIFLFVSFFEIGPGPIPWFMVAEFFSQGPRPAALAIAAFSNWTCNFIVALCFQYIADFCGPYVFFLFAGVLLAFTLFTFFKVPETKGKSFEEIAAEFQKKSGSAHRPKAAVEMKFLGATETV
Settings: cited from earlier work

SMILES: NC1C(O)[C@H](O)C(CO)O[C@@H]1O (stereo partly shown) [GlcN, glucosamine]
- affinity of GLUT2 for GlcN relative to glucose: ~20 fold
